Assay results reported in the supplement of paper PMC10307832.

What was measured:
Test in all cases: relative viability (nuclei count vs DMSO), 5 days (fraction); higher = more cells survive
Metformin + Lapatinib = compound: CN(C)C(=N)NC(=N)N [Metformin] + CS(=O)(=O)CCNCc1ccc(-c2ccc3ncnc(Nc4ccc(OCc5cccc(F)c5)c(Cl)c4)c3c2)o1 [Lapatinib] (partner 2 µM)
Summary of the method: (§1)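 Five library-drug doses in √10 steps were combined with a fixed anchor-drug dose, or a single drug was given alone, by pin tool to lung cancer cell lines in 1536-well plates the day after seeding. Nuclei were stained and counted after 5 days. Relative viability is the nuclei count in treated wells over that in vehicle wells, taken as the median of duplicate plates.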

Apatinib + Tozasertib = compound: N#CC1(c2ccc(NC(=O)c3cccnc3NCc3ccncc3)cc2)CCCC1 [Apatinib] + Cc1cc(Nc2cc(N3CCN(C)CC3)nc(Sc3ccc(NC(=O)C4CC4)cc3)n2)n[nH]1 [Tozasertib] (partner 0.1 µM)
Summary of the method: as §1

Apatinib + Alpelisib = compound: N#CC1(c2ccc(NC(=O)c3cccnc3NCc3ccncc3)cc2)CCCC1 [Apatinib] + Cc1nc(NC(=O)N2CCC[C@H]2C(N)=O)sc1-c1ccnc(C(C)(C)C(F)(F)F)c1 [Alpelisib] (partner 2 µM)
Summary of the method: as §1

Apatinib + Olaparib = compound: N#CC1(c2ccc(NC(=O)c3cccnc3NCc3ccncc3)cc2)CCCC1 [Apatinib] + O=C(c1cc(Cc2n[nH]c(=O)c3ccccc23)ccc1F)N1CCN(C(=O)C2CC2)CC1 [Olaparib] (partner 8 µM)
Summary of the method: as §1

Cell Line	relative viability (Metformin + Lapatinib; first compound 10 µM)	relative viability (Metformin + Lapatinib; first compound 31.62 µM)	relative viability (Metformin + Lapatinib; first compound 100 µM)	relative viability (Metformin + Lapatinib; first compound 316.23 µM)	relative viability (Metformin + Lapatinib; first compound 1000 µM)	relative viability (Apatinib + Tozasertib; first compound 0.08 µM)	relative viability (Apatinib + Tozasertib; first compound 0.253 µM)	relative viability (Apatinib + Tozasertib; first compound 0.8 µM)	relative viability (Apatinib + Tozasertib; first compound 2.53 µM)	relative viability (Apatinib + Tozasertib; first compound 8 µM)	relative viability (Apatinib + Alpelisib; first compound 0.08 µM)	relative viability (Apatinib + Alpelisib; first compound 0.253 µM)	relative viability (Apatinib + Alpelisib; first compound 0.8 µM)	relative viability (Apatinib + Alpelisib; first compound 2.53 µM)	relative viability (Apatinib + Alpelisib; first compound 8 µM)	relative viability (Apatinib + Olaparib; first compound 0.08 µM)	relative viability (Apatinib + Olaparib; first compound 0.253 µM)	relative viability (Apatinib + Olaparib; first compound 0.8 µM)	relative viability (Apatinib + Olaparib; first compound 2.53 µM)	relative viability (Apatinib + Olaparib; first compound 8 µM)
PC-14	0.432	0.438	0.37	0.36	0.372	0.7	0.65	0.536	0.562	0.493	0.935	0.861	0.876	0.875	0.838	0.278	0.28	0.222	0.213	0.252
HCC-78	0.494	1.05	0.863	0.933	0.969	0.477	0.333	0.535	0.289	0.317	0.414	0.291	0.364	0.25	0.382	0.803	0.696	0.878	0.711	0.768
NCI-H322M	0.589	0.598	0.688	0.614	0.585	0.454	0.426	0.437	0.441	0.503	0.782	0.744	0.766	0.89	0.782	0.791	0.759	0.686	0.772	0.805
NCI-H2023		0.975	0.74		0.764	0.43	0.307	0.195	0.162	0.135	0.64	0.675	0.587	0.514	0.559	0.429	0.508	0.462	0.35	0.395
NCI-H1651	0.877	0.81	0.822	0.749	0.865	0.753	0.756	0.717	0.34	0.362	1.03	1.11	0.786	0.851	0.83	0.192	0.206	0.186	0.17	0.172
HCC-15	0.54	0.908	0.891	0.785	0.913	0.376	0.48	0.357	0.248	0.163	0.911	0.904	0.839	0.891	0.705	0.657	0.76	0.686	0.615	0.54
NCI-H3122	0.871	0.872	0.89	0.846	0.819	0.551	0.368	0.432	0.374	0.367	0.781	0.796	0.822	0.761	0.714	0.609	0.655	0.525	0.613	0.597
LOU-NH91	0.784	0.775	0.725	0.755	0.71	0.741	0.729	0.618	0.601	0.546	0.762	0.699	0.586	0.616	0.568	0.976	0.885	0.783	0.87	0.825
LXF-289	0.812	0.879	0.879	0.843	0.887	0.211	0.247	0.171	0.175	0.132	1.13	1.06	1.03	0.998	0.964	1.03	1.18	0.993	0.956	0.904
NCI-H650	1.22	1.04	0.887	0.799	0.942	0.769	0.777	0.724	0.644	0.486	1.23	1.25	1.04	1.03	0.987	0.35	0.458	0.439	0.365	0.334
NCI-H1975	0.98	1.27	0.935	1.05	1.06	0.864	0.691	0.253	0.157	0.157	0.662	0.691	0.508	0.562	0.576	0.795	0.77	0.727	0.723	0.634
ChaGo-K-1						0.194	0.227	0.193	0.208	0.178						0.47	0.523	0.443	0.408	0.344
COR-L 105	0.415	0.36	0.462	0.426	0.405	0.387	0.313	0.355	0.351	0.304	1.01	1.23	0.82	0.921	0.731	0.794	0.802	0.737	0.543	0.672
A-427	0.943	1.06	1.04	0.994	0.951	0.178	0.241	0.175	0.188	0.147	1.14	1.02	1.19	1.02	1	0.66	0.71	0.73	0.641	0.612
NCI-H2087	0.597	0.902	1.02	1.06	0.895	0.241	0.223	0.215	0.179	0.143	1.19	1.07	1.03	0.904	0.666	0.633	0.653	0.541	0.645	0.493
NCI-H358	0.409	0.671	0.616	0.58	0.602	0.113	0.103	0.0953	0.108	0.0888	0.87	0.914	0.831	0.882	0.781	0.681	0.559	0.553	0.569	0.453
